Source: US10463670B2, “Use of non-peptide NK1 antagonists in a predetermined dose for the treatment of cancer” (SERVICIO ANDALUZ DE SALUD, priority 2013, dated 2019)
Where a SMILES comes first, the peptide text is derived from it. Bridges are numbered along the chain shown (N, C = ends). [ ]: non-standard residue; d: D form. The star is where a group is joined. NH(β-GlcNAc) = CC(=O)N[C@@H]1[C@@H](O)[C@H](O)[C@@H](CO)O[C@H]1N*; Dap = NC[C@H](N)C(=O)O

Experiments:
[1] = system: human neuroblastoma; reference KELLY; test: Neuroblastoma KELLY tumours in nude mice, Cisplatin alone or with Aprepitant; assay type: in vivo; conditions: Cisplatin 8 mg/kg on days 1 and 7, alone
Protocol: (§1) Immunocompromised female mice, 5-6 weeks of age were used, nu/nu Balb/c nude mice, provided by Harlan Iberica Barcelona (Spain). They were kept at 24° C. and in sterile conditions with food and water “ad libitum”. […] The tumour size was measured and the mice were evaluated for their state of health and weight daily. […] One of the groups was treated with 200 μl of placebo (control group) and the eight remaining groups with doses of 10 (group 1), 20 (group 2), 30 (group 3), 40 (group 4), 50 (group 5), 60 (group 6), 70 (group 7) and 80 (group 8) mg per kilogram of weight and day of the NK1 receptor antagonist Aprepitant. 3 animals were treated per group, during 28 days. All the mice were sacrificed at the end of the experiment. […] Immunocompromised female mice, 5-6 weeks of age were used, in the same conditions as explained in example 1. […] The tumour size was measured and the mice were evaluated for their state of health and weight daily. […] One of the groups was treated with two single doses of Cisplatin, of 8 mg per kilogram of weight, on days 1 and 7 of the experiment (control group). The eight remaining groups were treated with the same treatment as the control group and the doses of 1 (group 1), 3 (group 2), 5 (group 3), 6 (group 4), 7 (group 5), 8 (group 6), 9 (group 7) and 10 (group 8) mg per kilogram of weight and day, of the NK1 receptor antagonist Aprepitant. […]

[2] = system: human lymphoma; reference BC-1; test: Lymphoma BC-1 tumours in nude mice, Cisplatin alone or with Aprepitant; assay type: in vivo; conditions: Cisplatin 8 mg/kg on days 1 and 7, alone
Protocol: as §1

[3] = system: human lung cancer; reference HCC-44; test: Lung cancer HCC-44 tumours in nude mice, Cisplatin alone or with Aprepitant; assay type: in vivo; conditions: Cisplatin 8 mg/kg on days 1 and 7, alone
Protocol: Immunocompromised female mice, 5-6 weeks of age were used, nu/nu Balb/c nude mice, provided by Harlan Iberica Barcelona (Spain). They were kept at 24° C. and in sterile conditions with food and water “ad libitum”. […] The tumour size was measured and the mice were evaluated for their state of health and weight daily. […] One of the groups was treated with 200 μl of placebo (control group) and the eight remaining groups with doses of 10 (group 1), 20 (group 2), 30 (group 3), 40 (group 4), 50 (group 5), 60 (group 6), 70 (group 7) and 80 (group 8) mg per kilogram of weight and day of the NK1 receptor antagonist Aprepitant. 3 animals were treated per group, during 28 days. All the mice were sacrificed at the end of the experiment. […] Immunocompromised female mice, 5-6 weeks of age were used, in the same conditions as explained in example 1. […] The tumour size was measured and the mice were evaluated for their state of health and weight daily. […] One of the groups was treated with Cisplatin at 8 mg per kilogram of weight at single doses on days 1 and 7 of the experiment (control group) and the eight remaining groups with the same treatment as the control group and the doses of 1 (group 1), 3 (group 2), 5 (group 3), 6 (group 4), 7 (group 5), 8 (group 6), 9 (group 7) and 10 (group 8) mg per kilogram of weight and day, of the NK1 receptor antagonist Aprepitant. […]

[4] = system: human melanoma; reference MEL-HO; test: Melanoma MEL-HO tumours in nude mice, Cisplatin alone or with Aprepitant; assay type: in vivo; conditions: Cisplatin 8 mg/kg on days 1 and 7, alone
Protocol: as §1

[5] = system: human fibrosarcoma; reference HT-1080; test: Fibrosarcoma HT-1080 tumours in nude mice, Cisplatin alone or with Aprepitant; assay type: in vivo; conditions: Cisplatin 8 mg/kg on days 1 and 7, alone
Protocol: as §1

[6] = system: human glioma; reference GAMG; test: Glioma GAMG tumours in nude mice, Cisplatin alone or with Aprepitant; assay type: in vivo; conditions: Cisplatin 8 mg/kg on days 1 and 7, alone
Protocol: as §1

cell proliferation = conditions: Singh et al. 2000; Bigioni et al. 2005; cited from earlier work

With `N.N.[Cl][Pt][Cl]` [Cisplatin] the “Tumour size (mean volume of the tumour)” value ([1]; 7 days) was 95 ± 8 cubic millimeters, the “Tumour size (mean volume of the tumour)” value ([1]; 14 days) was 60 ± 8 cubic millimeters and the “Tumour size (mean volume of the tumour)” value ([2]; 7 days) was 85 ± 6 cubic millimeters. For the same molecule, the “Tumour size (mean volume of the tumour)” value ([2]; 14 days) was 50 ± 3 cubic millimeters, the “Tumour size (mean volume of the tumour)” value ([3]; 7 days) was 105 ± 4 cubic millimeters and the “Tumour size (mean volume of the tumour)” value ([3]; 14 days) was 70 ± 7 cubic millimeters. The “Tumour size (mean volume of the tumour)” value ([4]; 7 days) was 105 ± 6 cubic millimeters, the “Tumour size (mean volume of the tumour)” value ([4]; 14 days) was 75 ± 6 cubic millimeters and the “Tumour size (mean volume of the tumour)” value ([5]; 7 days) was 95 ± 5 cubic millimeters. The “Tumour size (mean volume of the tumour)” value ([5]; 14 days) was 65 ± 5 cubic millimeters, the “Tumour size (mean volume of the tumour)” value ([6]; 7 days) was 115 ± 7 cubic millimeters and the “Tumour size (mean volume of the tumour)” value ([6]; 14 days) was 85 ± 6 cubic millimeters.

In the case of `CC(=O)N[C@@H]1[C@@H](O)[C@H](O)[C@@H](CO)O[C@H]1NC(=O)C[C@@H]1NC(=O)[C@H](CC(C)C)NC(=O)[C@@H]2CNC(=O)C[C@H](NC1=O)C(=O)N[C@@H](Cc1c[nH]c3ccccc13)C(=O)N[C@@H](Cc1ccccc1)C(=O)N2` [MEN 11420, Nepadutant] (cyclo(D(NH(β-GlcNAc))DWF[Dap]L); lactam 2-5), the Blocking cell proliferation (cell proliferation) is given as “efficacy thereof in blocking cell proliferation”.

In the case of `Cc1ccc(CC(=O)N(C)[C@H](Cc2ccc3ccccc3c2)C(=O)N[C@@H]2CCCC[C@@H]2NC(=O)c2c[nH]c3ccccc23)cc1` [MEN 11467], the Blocking cell proliferation (cell proliferation) is given as “efficacy thereof in blocking cell proliferation”.

In the case of `CC(=O)NC1(c2ccccc2)CCN(CC[C@H](CN(C)C(=O)c2ccccc2)c2ccc(Cl)c(Cl)c2)CC1` [SR 48968], the Blocking cell proliferation (cell proliferation) is given as “efficacy thereof in blocking cell proliferation”.
